Experiment [1] concerns M109. Nature of the experiment: In vivo antitumor activity expressed as percent median survival time of treated mice to saline treated mice against murine lung carcinoma M109 at 75 mg/kg (ip) on days 5 and 8 reference to 3g. It counts as functional, Mus musculus.
In experiment [2] the test system is M109. As to the kind of experiment: In vivo antitumor activity expressed as percent median survival time of treated mice to saline treated mice against murine lung carcinoma M109 at 75 mg/kg (ip) on days 5 and 8 reference to 3a. It counts as functional, Mus musculus.
The subject of experiment [3] is M109. As to the kind of experiment: In vivo antitumor activity expressed as percent median survival time of treated mice to saline treated mice against murine lung carcinoma M109 at 50 mg/kg (ip) on days 1, 5 and 9 reference to 3e. The experiment is classed as functional, Mus musculus.
For experiment [4], the system named is M109. As to the kind of experiment: In vivo antitumor activity expressed as percent median survival time of treated mice to saline treated mice against murine lung carcinoma M109 at 75 mg/kg (ip) on days 5 and 8 reference to 3i. It counts as functional, Mus musculus.
Experiment [5] concerns M109. Nature of the experiment: In vivo antitumor activity expressed as percent median survival time of treated mice to saline treated mice against murine lung carcinoma M109 at 75 mg/kg (ip) on days 5 and 8 reference to 3h. The experiment is classed as functional, Mus musculus.
Experiment [6] concerns M109. Nature of the experiment: In vivo antitumor activity expressed as percent median survival time of treated mice to saline treated mice against murine lung carcinoma M109 at 30 mg/kg (ip) on days 1, 5 and 9 reference to 3f. It counts as functional, Mus musculus.
In experiment [7] the test system is M109. Nature of the experiment: In vivo antitumor activity expressed as percent median survival time of treated mice to saline treated mice against murine lung carcinoma M109 at 30 mg/kg (ip) on days 1, 5 and 9 reference to 3d. The experiment is classed as functional, Mus musculus.
For experiment [8], the system named is M109. Nature of the experiment: In vivo antitumor activity expressed as percent median survival time of treated mice to saline treated control against murine lung carcinoma M109 at 50 mg/kg (ip) on days 5 and 8 reference to 3c. The experiment is classed as functional, Mus musculus.
Experiment [9] relates to M109. As to the kind of experiment: In vivo antitumor activity expressed as percent median survival time of treated mice to saline treated mice against murine lung carcinoma M109 at 30 mg/kg (ip) on days 1, 5 and 9 reference to 3b. It counts as functional, Mus musculus.
For experiment [10], the system named is M109. As to the kind of experiment: In vivo antitumor activity expressed as percent median survival time of treated mice to saline treated mice against murine lung carcinoma M109 at 90 mg/kg (ip) on days 1, 5 and 9. The experiment is classed as functional, Mus musculus.
The species entered for experiment [11] is Rattus norvegicus. As to the kind of experiment: Tested for tubulin polymerization assay in rat; Inactive. It counts as functional, organism-based.
In experiment [12] the test system is HCT-116. Nature of the experiment: Compound was tested for its cytotoxicity against human colon cancer cell line HCT116. It counts as functional, cell-based.
Experiment [13] has as its system M109. Nature of the experiment: In vivo antitumor activity expressed as percent median survival time of treated mice to saline treated mice against murine lung carcinoma M109 at 90 mg/kg (ip) on days 5 and 8. The experiment is classed as functional, Mus musculus.
Experiment [14] is filed under the species Rattus norvegicus. Nature of the experiment: Tested to promote microtubule assembly by tubulin polymerization assay in rat plasma at 37 degree C for 18 hr; Active. It counts as functional, organism-based.

Calls of active or inactive are those of the source. No cut-off for these calls is given here. A value given as a limit tells only on which side of the number the result lay.

Usually T/C stands for the ratio of treated to control. The term IC50 denotes the concentration that gives 50% inhibition. Low values mean inhibition by little substance, high ones a need for much substance.

As for `CC(=O)O[C@H]1C(=O)[C@@]2(C)[C@H]([C@H](OC(=O)c3ccccc3)[C@]3(O)C[C@H](OC(=O)[C@H](O)[C@@H](NC(=O)c4ccccc4)c4ccccc4)C(C)=C1C3(C)C)[C@]1(OC(C)=O)CO[C@@H]1C[C@@H]2O` [PACLITAXEL], the T/C in experiment [1] came out at 262%; in [2], 276%; in experiment [3], 270%; in experiment [4], 262%; in experiment [5] it was 262%; in experiment [6], 275%. The T/C in [7] turned out to be 275%; in experiment [8] it was 197%; in [9], 275%.

`C=COC(=O)O[C@@H](C(=O)O[C@H]1C[C@@]2(O)[C@@H](OC(=O)c3ccccc3)C3[C@]4(OC(C)=O)COC4C[C@H](O)[C@@]3(C)C(=O)[C@H](OC(C)=O)C(=C1C)C2(C)C)[C@@H](NC(=O)c1ccccc1)c1ccccc1` (stereo partly specified) yielded a T/C in experiment [10] of more than 475%. In addition, the result in experiment [11] was inactive. Also, in experiment [12], the midpoint of inhibition, the IC50, lay at 40 nM.

In experiment [13], `COC(=O)O[C@@H](C(=O)O[C@H]1C[C@@]2(O)[C@@H](OC(=O)c3ccccc3)C3[C@]4(OC(C)=O)COC4C[C@H](O)[C@@]3(C)C(=O)[C@H](OC(C)=O)C(=C1C)C2(C)C)[C@@H](NC(=O)c1ccccc1)c1ccccc1` (stereo partly specified) returned a T/C of 162%. The result in [14] was Active. The same compound displayed a 50% inhibitory concentration (IC50) in [12] of more than 80 nM.

`CC(=O)O[C@H]1C(=O)[C@@]2(C)C([C@H](OC(=O)c3ccccc3)[C@]3(O)C[C@H](OC(=O)[C@H](OC(=O)Oc4cccc(N(C)C)c4)[C@@H](NC(=O)c4ccccc4)c4ccccc4)C(C)=C1C3(C)C)[C@]1(OC(C)=O)COC1C[C@@H]2O` (stereo partly specified) yielded a T/C in experiment [13] of 226%. For the same compound, the outcome in [11] was inactive. The same compound showed a concentration for half-maximal inhibition (IC50) in experiment [12] of 16 nM.

On to `CC(=O)O[C@H]1C(=O)[C@@]2(C)C([C@H](OC(=O)c3ccccc3)[C@]3(O)C[C@H](OC(=O)[C@H](OC(=O)OCc4ccccc4)[C@@H](NC(=O)c4ccccc4)c4ccccc4)C(C)=C1C3(C)C)[C@]1(OC(C)=O)COC1C[C@@H]2O` (stereo partly specified), for which the T/C in experiment [10] stood at 310%. Also, the outcome in experiment [11] was inactive. In addition, 30 nM corresponded to half-maximal inhibition in experiment [12] (IC50).

On to `CC(=O)O[C@H]1C(=O)[C@@]2(C)C([C@H](OC(=O)c3ccccc3)[C@]3(O)C[C@H](OC(=O)[C@H](OC(=O)OCCl)[C@@H](NC(=O)c4ccccc4)c4ccccc4)C(C)=C1C3(C)C)[C@]1(OC(C)=O)COC1C[C@@H]2O` (stereo partly specified), for which the T/C in experiment [10] stood at 275%. In addition, the outcome in experiment [11] was inactive. In addition, the half-inhibitory concentration (IC50) in experiment [12] stood at 30 nM.

As for `C=C(C)OC(=O)O[C@@H](C(=O)O[C@H]1C[C@@]2(O)[C@@H](OC(=O)c3ccccc3)C3[C@]4(OC(C)=O)COC4C[C@H](O)[C@@]3(C)C(=O)[C@H](OC(C)=O)C(=C1C)C2(C)C)[C@@H](NC(=O)c1ccccc1)c1ccccc1` (stereo partly specified), the T/C in [13] was 235%. In [11], the outcome was inactive. This compound showed a 50% inhibitory concentration (IC50) in experiment [12] of less than 15 nM.

As to `CC(=O)O[C@H]1C(=O)[C@@]2(C)C([C@H](OC(=O)c3ccccc3)[C@]3(O)C[C@H](OC(=O)[C@H](OC(=O)Oc4ccccc4)[C@@H](NC(=O)c4ccccc4)c4ccccc4)C(C)=C1C3(C)C)[C@]1(OC(C)=O)COC1C[C@@H]2O` (stereo partly specified), the T/C in experiment [13] is 203%. The outcome in [11] was inactive. This compound returned a half-maximal inhibitory concentration (IC50) in experiment [12] of 7 nM.

`CCOC(=O)O[C@@H](C(=O)O[C@H]1C[C@@]2(O)[C@@H](OC(=O)c3ccccc3)C3[C@]4(OC(C)=O)COC4C[C@H](O)[C@@]3(C)C(=O)[C@H](OC(C)=O)C(=C1C)C2(C)C)[C@@H](NC(=O)c1ccccc1)c1ccccc1` (stereo partly specified) registered a T/C in experiment [10] of more than 475%. Also, the result in experiment [14] was Active. In [12], the midpoint of inhibition, the IC50, lay at 30 nM.

As for `CC(=O)O[C@H]1C(=O)[C@@]2(C)C([C@H](OC(=O)c3ccccc3)[C@]3(O)C[C@H](OC(=O)[C@H](OC(=O)OC(C)C)[C@@H](NC(=O)c4ccccc4)c4ccccc4)C(C)=C1C3(C)C)[C@]1(OC(C)=O)COC1C[C@@H]2O` (stereo partly specified), the T/C in experiment [13] was found to be 247%. Besides, the result in experiment [11] was inactive. This compound also came in with an IC50 in experiment [12] of more than 80 nM.

Source of the values: ChEMBL document CHEMBL1151041, “Synthesis and antitumor evaluation of 2-oxycarbonylpaclitaxels (paclitaxel-2-carbonates)” (Bioorg Med Chem Lett, 1994).
